Results on 35 molecules are retold here after a melting point compilation (Tetko et al.; mined from patent text by program, amines drawn as free bases though some values may be those of a salt).

A word on the melting point: it is the temperature, or range, at which the solid turns liquid.

On to `C=CCNC(=O)c1cc(Cl)c2[nH]ncc2n1`, for which the melting point was 121 to 125 °C. Consider `O=S(=O)(c1ccc(Cl)c(CBr)c1Cl)N1CCCC1`, for which the melting point was found to be 115 °C.

Turning to `CCCCCCCCCCCCC(=O)CC#CCCCC(=O)O`, the melting point is 79 to 80.5 °C.

Molecule `O=C(c1ccccc1)c1cccc2c1OCC2C(=O)O` (stereo not given) displayed a melting point of 163 to 165 °C.

As for `O=C(O)CC[C@H](NC(=O)c1cc2ccccc2[nH]1)C(=O)NC(c1ccc(Cl)cc1)c1ccc(Cl)cc1`, the melting point amounted to 207 °C. Under `NCc1ccccc1NC1CCN(Cc2ccccc2)CC1` stands 117 to 118 °C; under `COc1cc(Cl)cc(Cl)c1C(=O)NC(C)(C)CO`, 131 to 132 °C; under `CCSC1=N[C@@H](c2ccc(OC)cc2)[C@@H](c2ccc(OC)cc2)N1`, 92 to 93 °C.

The molecule `O=c1[nH]nnn1-c1ccc([N+](=O)[O-])cc1F` came in with a melting point of 148 to 150 °C. `CCCOc1ccc(CCNC(=O)C=Cc2ccc(Cl)cc2Cl)cc1OCCC` yielded a melting point of 132 to 134 °C. Molecule `Cc1cc(C2=NOC(c3cc(Cl)cc(Cl)c3)(C(F)(F)F)C2)ccc1C(=O)NC1CSSC1` (stereo not given) came in with a melting point of 73 °C.

On to `CC1NC(=O)Nc2ccc(C(=O)CBr)cc21` (stereo not given), for which the melting point lay within 188 to 190 °C. Molecule `O=C1c2ccccc2C(=O)c2c(NCCc3ccc(O)cc3)ccc(NCCc3ccc(O)cc3)c21` yielded a melting point of 240 to 242 °C. In turn, `CCCCCCC(=O)CCCn1c(CCC)nc2c(N)nc3ccccc3c21` gave a melting point of 111 to 113 °C. Under `O=C(Nc1cccc(F)c1)C1C(=O)Sc2ccccc21` (stereo not given) stands 169 to 171 °C. The same measure for `COc1cc2c(cn1)CC(CC(=O)O)C=C2` (stereo not given): 151 to 152 °C; for `CNC(=O)C(C)(C)n1cc(C)c(-c2ccccc2Cl)n1`: 87 to 90.5 °C.

`CCOc1ccccc1C(C)CC(=O)Nc1sc2c(c1C#N)CCNC2` (racemic): the melting point lay in the range of 111 to 115 °C. `CCc1nc2c(cnn2CC)c(NC2CCOCC2)c1CNC(=O)c1cccc(C(=O)NCc2cc(Cl)cc(-c3cccc(CN4CCCN(C)CC4)c3)c2)c1`: the melting point lay in the range of 111 to 113 °C. On to `CCCCC(Cn1cnc([N+](=O)[O-])c1)c1ccc(Cl)cc1Cl` (stereo not given), for which the melting point lay within 67 to 69 °C. In the case of `Oc1nn(-c2ccccc2)nc1Cl`, the melting point is 135 to 140 °C. Regarding `CC1CN(c2c(F)cc3c(=O)c(C(=O)O)cn4c3c2OCC4C)CC1NC(=O)OC(C)(C)C` (stereo not given), the melting point lay within 206 to 207 °C. The molecule `NC(=O)c1nc(-c2cnc3nc[nH]c3c2)nc2c1[nH]c(=O)n2-c1ccccc1C(F)(F)F` registered a melting point of 320 °C. The same measure for `FC(F)(F)Oc1ccc(-n2cnc3ccc(-c4nnc(N5CCOCC5)o4)cc32)cc1`: 202 to 203 °C; for `CC(C)c1cc(Oc2c(I)cc(CP(=O)(O)O)cc2I)ccc1O`: over 220 °C. The molecule `CCOC(=O)c1c(C(F)(F)F)nc(C(F)(F)F)c(C)c1OCC` gave a melting point of 72.5 to 74 °C. Under `N#CCCC(C#N)(CCC#N)C(N)=O` stands 118 to 120 °C. The same measure for `COCC1CN(c2cc3c(cc2F)c(=O)c(C(=O)O)cn3-c2ccc(F)cc2)CCN1` (stereo not given): 216 to 218 °C; for `O=C(O)C(=O)CC(=O)c1cccn1Cc1ccc(Br)cc1`: 184 to 185 °C; for `C=C(C(=O)NC1CCCCC1)c1ccccc1`: 131 to 133 °C. The same measure for `COc1ccc(S(=O)(=O)N2C(=O)C(O[Si](C)(C)C)(c3ccccc3Cl)c3cc(Cl)c(OC)cc32)c(OC)c1` (stereo not given): 217 to 219 °C. `CCCCC(=O)Oc1c(-c2ccc(-c3ccccc3)cc2)nc2ccc(F)cc2c1C(=O)O`: the melting point lay within 214 to 217 °C. Under `Cc1cc(C)cc(NC(=O)Cc2ccc(OC3(C(=O)O)CCOCC3)cc2)c1` stands 186 to 188 °C; under `CCNc1cc([N+](=O)[O-])ccc1OCCOC`, 83 to 87 °C; under `CCCC1=C(C#N)C(c2cccc(C#N)c2Br)c2c[nH]nc2N1C` (stereo not given), 218 to 220 °C.
